Columns and labels:
Format in all cases: in vivo, human
[1] = test system: Grade 2 and Grade 3 advanced GEP-NET; experiment: NETTER-2 Progression-Free Survival (PFS), central review using RECIST 1.1; conditions: for Kaplan-Meier event-free estimates (95% CI): PFS; for Kaplan-Meier event-free estimates (95% CI) / PFS Events / PFS events: Deaths / PFS events: Progression / PFS 25th percentile (95% CI) / PFS 75th percentile (95% CI) / Median PFS (95% CI): Full Analysis Set; for PFS 25th percentile (95% CI) / PFS 75th percentile (95% CI) / Median PFS (95% CI): central review, RECIST 1.1
Protocol: The primary efficacy end-point is PFS as measured by objective tumor response, which is determined by RECIST criteria, Version 1.1 (Eisenhauer, et al., 2009). Tumor response will be assessed locally and centrally.
It is recommended that for each patient identical acquisition and reconstruction protocols be used at all time-points. Central, blinded, real-time IRC (Independent Review Committee) assessment will be conducted for determining progressive disease. Changes from randomization date will be assessed at week 16±1, week 24±1 and then every 12±1 weeks until the PFS primary analysis End-Point has been reached, then until Week 72 after randomization, unless the patient progresses or dies.
The primary endpoint of the study is progression-free survival (PFS), defined as the time from the date of randomization to the date of the first documented progression or death due to any cause. PFS will be assessed via central review according to RECIST 1.1.
The stratification will be based on following randomization stratification factors (grade: G2 vs. G3; and tumor origin: pNET vs other origin).
Analyses will be based on the FAS population according to the randomized treatment group and strata assigned at randomization. The PFS distribution will be estimated using the Kaplan-Meier method, and Kaplan-Meier curves, median and associated 95% confidence intervals will be presented for each treatment group. The hazard ratio for PFS will be calculated, along with its 95% confidence interval, from a stratified Cox model using the same stratification factors as for the log-rank test.

[2] = NETTER-2 subject disposition: discontinuation of randomized treatment phase (Full Analysis Set)
Source text: The discontinuation of either study treatments in both arms (Lutathera or octreotide long-acting) is not a reason for patient's withdrawal either from the clinical/tumor assessments until tumor progression, or for early study termination. However, in case of a patient's withdrawal from the clinical/tumor assessments or early study termination (based on either the patient's or the Investigator's decision), patients will undergo all exams scheduled for the End of Treatment (EOT) visit.
The Full Analysis Set (FAS) comprises all subjects to whom study treatment has been assigned by randomization. According to the intent to treat principle, subjects will be analyzed according to the treatment and strata they have been assigned to during the randomization procedure.

[3] = NETTER-2 worst post-baseline biochemistry abnormalities based on CTC grades (Safety Set)
Source text: The laboratory assessments require that blood samples for hematology and blood chemistry, and a urine sample for urinalysis are taken. Laboratory assessments will be performed at the investigational site.
Blood tests performed 4 weeks after any treatment cannot serve as baseline values for the next treatment.
All laboratory data will be listed by treatment group, subject, and visit/time and if normal ranges are available abnormalities will be flagged. Summary statistics will be provided by treatment and visit/time. Shift tables using the low/normal/high/(low and high) classification will be used to compare baseline to the worst on-treatment value.
Grading of laboratory values will be assigned programmatically as per NCI Common Terminology Criteria for Adverse Events (CTCAE) version 5.0 or current version. The calculation of CTCAE grades will be based on the observed laboratory values only, clinical assessments will not be taken into account.
The following summaries will be generated separately for hematology, and biochemistry tests: • 1. Listing of all laboratory data with values flagged to show the corresponding CTCAE grades if applicable and the classifications relative to the laboratory normal ranges • 2. For laboratory tests where grades are defined by CTCAE, • 3. Worst post-baseline CTCAE grade (regardless of the baseline status). Each subject will be counted only once for the worst grade observed post-baseline. • 4. Shift tables using CTCAE grades to compare baseline to the worst on-treatment value • 5. For laboratory tests where grades are not defined by CTCAE, • 6. Shift tables using the low/normal/high/(low and high) classification to compare baseline to the worst on-treatment value.

[4] = All grades (CTCAE v5.0), randomized treatment period, Safety Set
[5] = Grade 3/4 (CTCAE v5.0), randomized treatment period, Safety Set

C[C@@H](O)[C@H](NC(=O)[C@@H]1CSSC[C@H](NC(=O)[C@@H](Cc2ccccc2)NC(=O)CN2CCN(CC(=O)[O-])CCN(CC(=O)[O-])CCN(CC(=O)[O-])CC2)C(=O)N[C@@H](Cc2ccc(O)cc2)C(=O)N[C@H](Cc2c[nH]c3ccccc23)C(=O)N[C@@H](CCCCN)C(=O)N[C@@H]([C@@H](C)O)C(=O)N1)C(=O)O.[177Lu+3] [Lutathera, ^177Lu-DOTA^0-Tyr^3-Octreotate]
Kaplan-Meier event-free estimates (95% CI) ([1]; 4 months): 95.8 (91.0, 98.1) % | Kaplan-Meier event-free estimates (95% CI) ([1]; 6 months): 92.3 (86.6, 95.7) % | Kaplan-Meier event-free estimates (95% CI) ([1]; 9 months): 85.6 (78.6, 90.5) % | Kaplan-Meier event-free estimates (95% CI) ([1]; 12 months): 80.7 (72.9, 86.4) % | Kaplan-Meier event-free estimates (95% CI) ([1]; 15 months): 71.0 (61.9, 78.3) % | Kaplan-Meier event-free estimates (95% CI) ([1]; 18 months): 66.5 (56.9, 74.4) % | Kaplan-Meier event-free estimates (95% CI) ([1]; 24 months): 49.8 (38.5, 60.1) % | Kaplan-Meier event-free estimates (95% CI) ([1]; 30 months): 36.1 (22.3, 50.1) % | PFS Events [1]: 55 (36.4) n (%) | PFS events: Deaths [1]: 8 (5.3) n (%) | PFS events: Progression [1]: 47 (31.1) n (%) | estimated risk reduction (progression or death) ([1]; Lutathera arm compared to High-dose Octreotide arm): 72% | PFS 25th percentile (95% CI) [1]: 14.1 (10.9, 17.0) months | PFS 75th percentile (95% CI) [1]: NE (29.0, NE) | Reason for End of Randomized Treatment Phase: Death ([2]; Full Analysis Set): 4 (2.6) n (%) | Reason for End of Randomized Treatment Phase: Progressive Disease ([2]; Full Analysis Set): 42 (27.8) n (%) | Reason for End of Randomized Treatment Phase: Adverse Event ([2]; human, in vivo): 8 (5.3) n (%) | Treatment discontinuation due to adverse event ([2]; human, in vivo): 5.3% | discontinuation for progressive disease ([2]; randomized period): 27.8% | Worst post-baseline abnormality: Bilirubin (umol/L)-Increase [3, 4]: 26 (17.7) n (%) | Worst post-baseline abnormality: Creatinine (umol/L)-Increase [3, 4]: 30 (20.4) n (%) | Worst post-baseline abnormality: Sodium (mmol/L)-Decrease [3, 4]: 32 (21.8) n (%) | Worst post-baseline abnormality: Gamma Glutamyl Transferase (U/L)-Increase [3, 5]: 38 (25.9) n (%) | Grade 3/4 biochemical lab abnormality: aspartate aminotransferase increase ([3]; in vivo): 2.7% | Grade 3/4 biochemical lab abnormality: bilirubin increase ([3]; in vivo): 2.7% | Worst post-baseline abnormality: Alanine Aminotransferase (U/L)-Increase ([3]; in vivo): 6 (4.1) n (%) | Worst post-baseline abnormality: Bilirubin (umol/L)-Increase ([3]; in vivo): 4 (2.7) n (%) | Worst post-baseline abnormality: Creatinine (umol/L)-Increase ([3]; in vivo): 0 n (%) | Worst post-baseline abnormality: Gamma Glutamyl Transferase (U/L)-Increase ([3]; in vivo): 102 (69.4) n (%) | Worst post-baseline abnormality: Sodium (mmol/L)-Decrease ([3]; in vivo): 1 (0.7) n (%) | Grade 3/4 biochemical lab abnormality: GGT increase ([3]; randomized treatment period): 25.9%

C[C@@H](O)[C@@H]1NC(=O)[C@H](CCCCN)NC(=O)[C@@H](Cc2c[nH]c3ccccc23)NC(=O)[C@H](Cc2ccccc2)NC(=O)[C@@H](NC(=O)[C@H](N)Cc2ccccc2)CSSC[C@@H](C(=O)N[C@H](CO)[C@@H](C)O)NC1=O [Octreotide LAR, octreotide]
Kaplan-Meier event-free estimates (95% CI) ([1]; 4 months): 73.5 (61.2, 82.4) % | Kaplan-Meier event-free estimates (95% CI) ([1]; 6 months): 64.5 (51.8, 74.6) % | Kaplan-Meier event-free estimates (95% CI) ([1]; 9 months): 46.0 (33.4, 57.7) % | Kaplan-Meier event-free estimates (95% CI) ([1]; 12 months): 42.4 (30.0, 54.3) % | Kaplan-Meier event-free estimates (95% CI) ([1]; 15 months): 36.4 (24.3, 48.5) % | Kaplan-Meier event-free estimates (95% CI) ([1]; 18 months): 29.2 (17.7, 41.7) % | Kaplan-Meier event-free estimates (95% CI) ([1]; 24 months): 19.5 (9.1, 32.7) % | PFS Events [1]: 46 (61.3) n (%) | PFS events: Deaths [1]: 5 (6.7) n (%) | PFS events: Progression [1]: 41 (54.7) n (%) | Median PFS (95% CI) [1]: 8.5 (7.7, 13.8) months | PFS 25th percentile (95% CI) [1]: 3.9 (3.7, 5.7) months | PFS 75th percentile (95% CI) [1]: 19.3 (13.8, NE) months | Median PFS (95% CI) ([1]; listed as High-dose Octreotide): 8.5 months | Median PFS (95% CI) ([1]; listed as high-dose Octreotide): 8.5 (7.7, 13.8) months | Reason for End of Randomized Treatment Phase: Adverse Event ([2]; Full Analysis Set): 1 (1.3) n (%) | Reason for End of Randomized Treatment Phase: Death ([2]; Full Analysis Set): 4 (5.3) n (%) | Reason for End of Randomized Treatment Phase: Progressive Disease ([2]; Full Analysis Set): 44 (58.7) n (%) | Treatment discontinuation due to adverse event ([2]; randomized period): 1.3% | discontinuation for progressive disease ([2]; randomized period): 58.7% | Worst post-baseline abnormality: Alanine Aminotransferase (U/L)-Increase [3, 4]: 38 (52.1) n (%) | Worst post-baseline abnormality: Albumin (g/L)-Decrease [3, 4]: 17 (23.3) n (%) | Worst post-baseline abnormality: Alkaline Phosphatase (U/L)-Increase [3, 4]: 40 (54.8) n (%) | Worst post-baseline abnormality: Aspartate Aminotransferase (U/L)-Increase [3, 4]: 40 (54.8) n (%) | Worst post-baseline abnormality: Bilirubin (umol/L)-Increase [3, 4]: 17 (23.3) n (%) | Worst post-baseline abnormality: Calcium Corrected (mmol/L)-Increase [3, 4]: 8 (11.0) n (%) | Worst post-baseline abnormality: Creatinine (umol/L)-Increase [3, 4]: 15 (20.5) n (%) | Worst post-baseline abnormality: Potassium (mmol/L)-Decrease [3, 4]: 10 (13.7) n (%) | Worst post-baseline abnormality: Potassium (mmol/L)-Increase [3, 4]: 16 (21.9) n (%) | Worst post-baseline abnormality: Sodium (mmol/L)-Decrease [3, 4]: 12 (16.4) n (%) | Worst post-baseline abnormality: Sodium (mmol/L)-Increase [3, 4]: 6 (8.2) n (%) | Worst post-baseline abnormality: Alanine Aminotransferase (U/L)-Increase [3, 5]: 3 (4.1) n (%) | Worst post-baseline abnormality: Albumin (g/L)-Decrease [3, 5]: 1 (1.4) n (%) | Worst post-baseline abnormality: Alkaline Phosphatase (U/L)-Increase [3, 5]: 3 (4.1) n (%) | Worst post-baseline abnormality: Aspartate Aminotransferase (U/L)-Increase [3, 5]: 5 (6.8) n (%) | Worst post-baseline abnormality: Bilirubin (umol/L)-Increase [3, 5]: 4 (5.5) n (%) | Worst post-baseline abnormality: Calcium Corrected (mmol/L)-Increase [3, 5]: 1 (1.4) n (%) | Worst post-baseline abnormality: Creatinine (umol/L)-Increase [3, 5]: 1 (1.4) n (%) | Worst post-baseline abnormality: Potassium (mmol/L)-Decrease [3, 5]: 2 (2.7) n (%) | Worst post-baseline abnormality: Potassium (mmol/L)-Increase [3, 5]: 3 (4.1) n (%) | Worst post-baseline abnormality: Sodium (mmol/L)-Decrease [3, 5]: 1 (1.4) n (%) | Worst post-baseline abnormality: Sodium (mmol/L)-Increase [3, 5]: 0 n (%) | Grade 3/4 biochemical lab abnormality: GGT increase ([3]; randomized treatment period): 28.8% | Grade 3/4 biochemical lab abnormality: aspartate aminotransferase increase ([3]; randomized treatment period): 6.8% | Grade 3/4 biochemical lab abnormality: bilirubin increase ([3]; randomized treatment period): 5.5%

From patent US20250099634A1, “METHOD OF TREATING CANCER” (Novartis AG, priority 2023, published 2025)
